Source: PMC11002876, “KcsA-Kv1.x chimeras with complete ligand-binding sites provide improved predictivity for screening selective Kv1.x blockers” (The Journal of Biological Chemistry, 2024)
Where no end group is shown, it is not given here.

Key:
[1] = tested on: human Kv1.3 channel (hKv1.3); format: cell-based; conditions: TEA+ 10 mM, positive control; human lymphocytes
Procedure: (§1) Human Kv1.3 currents were recorded from activated peripheral blood mononuclear cells (see below) 3 to 4 days after activation. Heparinized human peripheral venous blood was obtained from healthy volunteers. Mononuclear cells were separated through Histopaque-1077 density gradient centrifugation. Collected cells were washed twice with Ca^2+- and Mg^2+-free Hanks’ solution containing 25 mM Hepes buffer, pH 7.4. Cells were cultured for 3 to 4 days in 24-well culture plates in a 5% CO2 incubator at 37 °C, in RPMI 1640 medium supplemented with 10% fetal calf serum (Sigma-Aldrich), 100 μg/ml penicillin, 100 μg/ml streptomycin, and 2 mM L-glutamine (density, 0.5 × 10^6 cells per ml). Phytohemagglutinin A (Sigma-Aldrich) was added to the medium at 10 μg/ml to amplify the Kv1.3 expression. Cells were washed gently twice with 2 ml of ECS for the patch-clamp experiments.
(§2) Conventional whole-cell patch-clamp electrophysiology was used to record ionic currents. Micropipettes were pulled from GC150F-7.5 borosilicate capillaries (Harvard Apparatus) with tip diameters between 0.5 and 1 μm resulting in a tip resistance of 2 to 8 MΩ in the extracellular (bath) solution. All measurements were carried out by using Axopatch 200B amplifier connected to a personal computer using Axon Digidata 1550A data acquisition hardware and Pclamp10.7 software (https://support.moleculardevices.com/s/article/Axon-pCLAMP-10-Electrophysiology-Data-Acquisition-Analysis-Software-Download-Page). The holding potential was −120 mV. Records were discarded when leak at the holding potential was >10% of peak current at the test potential. Experiments were performed at room temperature (20–24 °C). Before analysis, whole-cell current traces were corrected for ohmic leakage and digitally filtered with a three-point boxcar smoothing filter.
Solutions: all salts and components of the solutions were purchased from Sigma Aldrich. […]
Native peptides, phage-expressed peptides, and positive controls used for them were dissolved in ECS supplemented with 0.1 mg/ml bovine serum albumin (BSA; Sigma-Aldrich Hungary). Bath perfusion around the measured cell with different extracellular solutions was achieved using a gravity flow micro perfusion system using a rate of 0.5 ml/min. […]
(§3) Voltage protocols: For measurement of Kv1.1 to 1.3 currents, voltage steps to +50 mV were applied from a holding potential of −120 mV and the peak current was measured every 15 s. […] The remaining current fraction at a given molar concentration was calculated as I/I0, where I0 is the peak current in the absence and I is the peak current at equilibrium block or […] after ∼2 min perfusion by the investigated peptide/phage.

[2] = tested on: human Kv1.3 channel (hKv1.3); conditions: read-out: IC50 on Kv1.3; positive control applied at a concentration equivalent to its IC50; no reference given; cited from earlier work
Procedure: (§4) Voltage protocols: For measurement of Kv1.1 to 1.3 currents, voltage steps to +50 mV were applied from a holding potential of −120 mV and the peak current was measured every 15 s. For Kv1.3 currents, 15-ms-long depolarizing pulses were applied. For Kv1.1, 50-ms-long–activating stimuli were used. Kv1.2 currents were evoked by 200-ms-long pulses. […] The remaining current fraction at a given molar concentration was calculated ...

[3] = tested on: human Kv1.1 channel (hKv1.1); conditions: read-out: IC50 on Kv1.1; positive control applied at a concentration equivalent to its IC50; no reference given; cited from earlier work
Procedure: as §4

[4] = target: T1, KcsA-Kv1.3 T-only chimera (Streptomyces lividans, UniProt P0A334, A54D/A57S/G53D/G56T/I60S/L59F/Q58G/R52A/R64D/T61S/Y62I); test: Phage ELISA-binding assay, KcsA-Kv1.3 T-only; set-up: species or system human Kv1.3 turret in Streptomyces lividans KcsA; conditions: toxin displayed on M13 phage
T1 construct: made in house; host or cells: E. coli XL1-Blue (pQE30)
T1 sequence (P0A334 1-160 R52A/G53D/A54D/G56T/A57S/Q58G/L59F/I60S/T61S/Y62I/R64D): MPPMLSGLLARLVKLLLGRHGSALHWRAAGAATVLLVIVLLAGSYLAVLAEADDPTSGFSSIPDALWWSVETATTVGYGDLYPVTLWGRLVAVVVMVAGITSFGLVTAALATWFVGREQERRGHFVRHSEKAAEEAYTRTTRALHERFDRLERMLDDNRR
Procedure: Phage display test solutions were prepared according to routine phage display protocols ([62]). Phosphorylated and annealed oligonucleotides encoding the peptide construct were ligated into linearized pAS62 phagemid vector (https://patents.google.com/patent/WO2022144560A1/en) at a vector/insert ratio of 1:3. The final phagemid construct harbored a signal sequence followed by the peptide of interest, a linker sequence ([…]), and the C-terminal part of the P3 coat protein (amino acids: 216-424 of NP_510891.1). […] The particle concentrations of phage solutions were determined using a NanoDrop One C (Thermo Fisher Scientific) spectrophotometer. The phage particle concentration was assessed according to the formula: (A268–A320) × 5 × 10^12 particles/ml ([62]). […]
Phage stock solutions were diluted to working concentration with phage resuspension buffer supplemented with 2 mM DDM. […] Following blocking, the wells were washed 4× with washing buffer (300 μl TBS-Tween, 0.1% v/v) using a Wellwash Versa microplate washer (Thermo Fisher Scientific); then 50 μl phage solution (in TBS-BSA-Tween, 0.1% v/v, 2 mM DDM) at determined phage concentration was added to the wells and incubated for 1 h at room temperature on a horizontal shaker. […]

[5] = tested on: human Kv1.3 channel (hKv1.3); test: Whole-cell patch-clamp of phage-displayed toxins, hKv1.3 in human lymphocytes; format: cell-based; conditions: perfusion concentration; phage-displayed toxin; experimentally titrated; N = 3
Procedure: as §1, §2
Solutions: all salts and components of the solutions were purchased from Sigma Aldrich. The extracellular (bath) solution (ECS) contained 145 mM NaCl, 5 mM KCl, 2.5 mM CaCl2, 1 mM MgCl2, 10 mM Hepes, and 5.5 mM glucose (pH 7.35 with NaOH), while the intracellular (pipette) solution (ICS) contained 140 mM KF, 2 mM MgCl2, 1 mM CaCl2, 11 mM EGTA, and 10 mM Hepes (pH 7.22 with KOH). The osmolarity of the ECS and ICS were 302 mOsM.
Native peptides, phage-expressed peptides, and positive controls used for them were dissolved in ECS supplemented with 0.1 mg/ml bovine serum albumin (BSA; Sigma-Aldrich Hungary). Bath perfusion around the measured cell with different extracellular solutions was achieved using a gravity flow micro perfusion system using a rate of 0.5 ml/min. Excess fluid was removed continuously.
as §3, with “s. For Kv1.3 currents, 15-ms-long depolarizing pulses were applied. For Kv1.1, 50-ms-long–activating stimuli were used. Kv1.2 currents were evoked by 200-ms-long pulses.” for “s.”
Phage display test solutions were prepared according to routine phage display protocols ([62]). Phosphorylated and annealed oligonucleotides encoding the peptide construct were ligated into linearized pAS62 phagemid vector (https://patents.google.com/patent/WO2022144560A1/en) at a vector/insert ratio of 1:3. The final phagemid construct harbored a signal sequence followed by the peptide of interest, a linker sequence ([…]), and the C-terminal part of the P3 coat protein (amino acids: 216-424 of NP_510891.1). Chemically competent XL1-Blue E. coli cells (2022249, Agilent) were transformed with the ligation product and then streaked onto ampicillin (100 μg/ml) containing LB/Amp plates and incubated for 16 h at 37 °C.

[6] = tested on: T+F chimera variant mutated at T84; test: Phage binding to T84-mutated T+F chimera, pilot experiment; conditions: pilot experiment (not shown)
Procedure: Phage stock solutions were diluted to working concentration with phage resuspension buffer supplemented with 2 mM DDM. For protein immobilization, the following amounts were used in a final volume of 50 μl/well: wt KcsA, 0.1 μg; KcsA-Kv1.1 T-only, 0.005 μg; KcsA-Kv1.1 T+F, 0.02 μg; KcsA-Kv1.2 T-only, 0.01 μg; KcsA-Kv1.2 T+F, 0.1 μg; KcsA-Kv1.3 T-only, 0.01 μg; and KcsA-Kv1.3 T+F, 0.1 μg. Protein samples were diluted in 50 μl of storage buffer (20 mM Tris pH8.0, 300 mM KCl, 2 mM DDM) and were added to the designated wells of a Pierce Clear, 96-Well Nickel Coated Plate (15442, Thermo Fisher Scientific), then incubated for 1 h at room temperature on a horizontal shaker at 130 rpm. The plate was blocked for 1 h at room temperature with 180 μl/well TBS-BSA supplemented with 1 mM DDM. Following blocking, the wells were washed 4× with washing buffer (300 μl TBS-Tween, 0.1% v/v) using a Wellwash Versa microplate washer (Thermo Fisher Scientific); then 50 μl phage solution (in TBS-BSA-Tween, 0.1% v/v, 2 mM DDM) at determined phage concentration was added to the wells and incubated for 1 h at room temperature on a horizontal shaker. […] The light absorbance signal was read at 450 nm with Byonoy absorbance 96 plate reader (Byonoy GmbH).

[7] = tested on: human Kv1.2 channel (hKv1.2); conditions: positive control applied at a concentration equivalent to its IC50; no reference given; cited from earlier work
Procedure: as §4

Molecule: CC[N+](CC)(CC)CC [TEA+, tetraethylammonium]
- inhibition of Kv1.3 current [1]: approximately 50%
- IC50 [2]: 10000 µM
- IC50 [3]: 300 µM

Molecule: HgTX1-phage: HgTx1 fused to the P3 coat protein of M13 phage with an eight amino acid linker (TVIDVKCTSPKQCLPPCKAQFGIRAGAKCMNGKCKCYPH-{GSASSATR-M13 P3 coat protein (216-424)}; not fully specified; ends and bridges not checked)
- phage binding to KcsA-Kv1.3 T-only, in words [4]: weaker binding
- phage concentration giving approximate 50% block of hKv1.3 current [5]: ~1.8 x 10^12 particle/ml

Molecule: MTX-expressing phages: MTX displayed on M13 phage (VSCTGSKDCYAPCRKQTGCPNAKCINKSCKCYGC-{GSASSATR-M13 P3 coat protein (216-424)}; not fully specified; ends and bridges not checked)
- binding to T+F chimera variant mutated at T84, in words [6]: did not diminish when T84 was mutated

Molecule: charybdotoxin
- IC50 [7]: 0.014 µM
